Measurements reported in patent US20260256923A1, “NEW RECRUITMENT ELEMENT OF UBIQUITIN LIGASE AND USE THEREOF” (SHENZHEN LINGGENE BIOTECH CO., LTD., priority 2023, published 2026).

Experiments:
[1] = system: metastatic castration-resistant prostate cancer; settings: patients carrying AR T878X and/or H875Y mutations; cited from earlier work
STAT3 [2] = molecular target: T1, STAT3 (Homo sapiens, UniProt P40763); test: STAT3 protein degradation in HOS osteosarcoma cells, western blot; type: cell-based; parameters: endogenous in cells; settings: 500 nM, 6 h
Experimental: (§1) HOS osteosarcoma cells were incubated with 500 nM double-stranded transcription factor decoy oligonucleotide S3, AS1411, the first PROTAC product 1411-S3-1, the second PROTAC product 1411-S3-2, or AS1411+double-stranded transcription factor decoy oligonucleotide S3. After 6 h, cell samples were collected for protein extraction and subsequent western blot assay.

STAT3 [3] = molecular target: T1, STAT3; test: STAT3 protein degradation in HeLa cells, western blot; type: cell-based; parameters: endogenous in cells; host or cells: HeLa; settings: 500 nM, 6 h
Experimental: HeLa cells were incubated with 500 nM said first PROTAC product 1411-S3-1 or second PROTAC product 1411-S3-2, and corresponding cell samples were collected at time gradients of 0 h, 2 h, 6 h, 12 h, 18 h, and 24 h for protein extraction and subsequent western blot assay.
HeLa cells were incubated with the first PROTAC product 1411-S3-1 or the second PROTAC product 1411-S3-2 at concentrations of 0 nM, 100 nM, 200 nM, 500 nM, and 1000 nM. After 6 h, cell samples were collected for protein extraction and subsequent western blot assay. […] The half-maximal degradation concentrations (DC50) of the first PROTAC product 1411-S3-1 and the second PROTAC product 1411-S3-2 against STAT3 at the protein level were 262.5 nM and 136.3 nM, respectively, as shown in FIG. 19.
as §1, with “HeLa” for “HOS osteosarcoma”
HeLa cells were incubated with 500 nM said first PROTAC product 1411-S3-1 or second PROTAC product 1411-S3-2, and proteasome inhibitor MG132 was added. After 6 h, cell samples were collected for protein extraction and subsequent western blot assay. […]

T1 sequence (P40763 whole entry): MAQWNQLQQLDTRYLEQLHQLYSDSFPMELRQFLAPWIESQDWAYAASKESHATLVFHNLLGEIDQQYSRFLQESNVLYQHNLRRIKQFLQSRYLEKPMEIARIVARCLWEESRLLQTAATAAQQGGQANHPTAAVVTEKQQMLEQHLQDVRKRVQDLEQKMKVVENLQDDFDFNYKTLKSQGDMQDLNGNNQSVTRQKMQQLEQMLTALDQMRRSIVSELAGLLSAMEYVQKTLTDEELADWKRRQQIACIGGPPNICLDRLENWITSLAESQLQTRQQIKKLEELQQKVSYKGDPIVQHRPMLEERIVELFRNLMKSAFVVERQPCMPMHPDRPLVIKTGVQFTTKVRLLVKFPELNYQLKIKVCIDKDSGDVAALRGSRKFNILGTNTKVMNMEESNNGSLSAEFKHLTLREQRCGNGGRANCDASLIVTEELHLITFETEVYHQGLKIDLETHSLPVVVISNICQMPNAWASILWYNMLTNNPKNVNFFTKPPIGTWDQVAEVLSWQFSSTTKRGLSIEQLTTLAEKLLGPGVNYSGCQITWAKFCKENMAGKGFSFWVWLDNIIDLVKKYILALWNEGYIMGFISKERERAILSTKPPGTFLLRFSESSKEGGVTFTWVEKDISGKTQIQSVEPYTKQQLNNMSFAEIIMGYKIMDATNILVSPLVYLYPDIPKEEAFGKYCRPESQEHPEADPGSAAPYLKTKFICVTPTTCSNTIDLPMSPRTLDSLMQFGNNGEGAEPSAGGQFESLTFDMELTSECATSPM

Molecule: N#Cc1ccc(O[C@H]2CC[C@H](NC(=O)c3ccc(N4CCC(CN5CCN(c6cc7c(cc6F)C(=O)N(C6CCC(=O)NC6=O)C7=O)CC5)CC4)nn3)CC2)cc1Cl (stereo partly drawn) [ARV-110, Bavdegalutamide]
- antitumor activity and clinical benefit [1]: exhibits potent antitumor activity and clinical benefit

Molecule: S3: double-stranded transcription factor decoy oligonucleotide that specifically recognizes STAT3; strands SEQ ID NO: 5 and 6 (chain 1 CTTCTGGGAAA; chain 2 TTTCCCAGAAG; DNA, backbone and methylation of C not given here; double-stranded decoy)
- protein level of STAT3 (STAT3 [2]): only the first PROTAC product 1411-S3-1 and the second PROTAC product 1411-S3-2 can reduce the protein level of transcription factor STAT3
- protein level of STAT3 (STAT3 [3]): only the first PROTAC product 1411-S3-1 and the second PROTAC product 1411-S3-2 can reduce the protein level of transcription factor STAT3
